Patent US20120015977A1, “QUINOLINONE DERIVATIVES USEFUL FOR THE TREATMENT OF CNS DISORDERS” (NEUROSEARCH A/S, priority 2009, published 2012)

Tested on: Psychomotor seizures induced via corneal stimulation (6 Hz)
Assay: 6 Hz electroshock seizure model (anticonvulsant properties)
Assay type: in vivo
Details: Mus musculus, po, 32 mA, 3 s corneal stimulation, p.o., pretreatment time 60 mins, vehicle 5% cremaphor, female NMRI mice, read-out: ED50 (dose that would give a 50% protection from seizures)
Source text: The animal models being used for the discovery of novel antiepileptic drugs are numerous. Among these, a low frequency (6 Hz) electroshock seizure model has recently come into the limelight as a potential model of pharmacoresistant epilepsy (see Epilepsy: a comprehensive textbook, pag. 1477, by Jerome Engel, Timothy A. Pedley, Jean Aicardi, Marc A Dichter, Solomon Moshé—2007—Medical), and it is therefore an animal model of primary interest in antiepileptic drug discovery. The compounds of the invention have shown remarkable activity to protect against 6 Hz seizures.
The evaluation of the anticonvulsant properties was carried out in female NMRI mice (20-25 g, Taconic, Denmark). The mice were housed in groups (8 per cage according to weight) with food and water available ad libitum The environment was temperature (20±2° C.) and humidity (55±15%) controlled, and consisted of a 12:12 h light-dark cycle (lights on 06:00 h). The experiments were performed according to the Danish Committee for Experiments on Animals. […]
For screening purposes, the test compound was tested at 1 dose at 1 time-point. In the case of protection of 3 or more out of 8 mice, the compound were further evaluated in dose response (N=8/group). […]

Row | SMILES | ED50 [mg/kg]
1 | NC(=O)Cn1c(=O)ccc2cc(Br)ccc21 [Compound 1, 2-(6-Bromo-2-oxo-1-quinolyl)acetamide] | 16

Tested on: not given
Assay: not given
Details: not given

Row | SMILES | melting point [°C]
2 | CCC(C(N)=O)n1c(=O)ccc2cccc(Br)c21 (stereo not drawn) [Compound 8, 2-(8-bromo-2-oxo-1-quinolyl)butanamide] | 124.2 to 125.5
3 | CCC(C(N)=O)n1c(=O)ccc2cc(Br)ccc21 (stereo not drawn) [Compound 2, 2-(6-bromo-2-oxo-1-quinolyl)butanamide] | 138.5 to 140
4 | CCC(C(N)=O)n1c(=O)ccc2cc(Cl)ccc21 (stereo not drawn) [Compound 7, 2-(6-chloro-2-oxo-1-quinolyl)butanamide] | 127.5 to 128.8
5 | CCC(C(N)=O)n1c(=O)ccc2cccc(Cl)c21 (stereo not drawn) [Compound 6, 2-(8-chloro-2-oxo-1-quinolyl)butanamide] | 127 to 128
6 | NC(=O)Cn1c(=O)ccc2cc(Cl)ccc21 [Compound 4, 2-(6-chloro-2-oxo-1-quinolyl)acetamide] | 159.4 to 160.9

Now from value to compound:

Row | melting point [°C] | SMILES
7 | 166.5 to 167.6 | NC(=O)Cn1c(=O)ccc2cccc(Cl)c21 [Compound 5, 2-(8-chloro-2-oxo-1-quinolyl)acetamide]
8 | 158.5 to 160 | NC(=O)Cn1c(=O)ccc2cccc(Br)c21 [Compound 3, 2-(8-bromo-2-oxo-1-quinolyl)acetamide]
9 | 256.6 to 257.5 | NC(=O)Cn1c(=O)ccc2cc(Br)ccc21 [Compound 1, 2-(6-Bromo-2-oxo-1-quinolyl)acetamide]
